Source: patent US10583137B2, “Triazole DAGLα inhibitors” (THE SCRIPPS RESEARCH INSTITUTE, priority 2015, dated 2020)
Read-outs that look alike come from different tables or passages of the source.

Legend:
[1] = target: DAGLα (hDAGLα-FLAG) (Homo sapiens (Human), UniProt Q9Y4D2); assay: competitive ABPP, membrane proteome of transfected HEK293T cells; type: biochemical; conditions: for inhibition at 0.0032 µM: 3.2 nM, read-out: DAGLα % inh. 3.2 nM
Protocol: (§1) Compounds 19 and 20 were tested for in vitro inhibition of DAGLα and DAGLβ as measured by competitive activity-based protein profiling (ABPP) of […] using a HT-01 probe (targets DAGLα and DAGLβ) and a FP-Rh probe (targets serine hydrolases).
(§2) Briefly, membrane proteome (1 mg/ml, 20 μL) was prepared from HEK293T cells (transiently transfected with hDAGLα-FLAG or hDAGLα-S472A-FLAG, hDAGLβ-FLAG or hDAGLβ-S443A-FLAG) as described in Example 16. The proteome was incubated at room temperature with vehicle (DMSO) or compound in 0.5 μL DMSO for 30 min. The membrane proteome sample was subsequently treated for 30 min with HT-01 probe (1 μM) or FP-Rh probe (1 μM). The reactions were quenched with 10 μL 3× Laemmli sample buffer (final concentrations: 60 mM Tris-Cl pH 6.8, 2% (w/v) SDS, 10% (v/v) glycerol, 5% (v/v) (3-mercaptoethanol, 0.01% (v/v) bromophenol blue). The samples were directly loaded and resolved on SDS page gel (10% acrylamide). The gels were scanned using a ChemiDoc MP system (Cy3 settings, 605/50 filter).
(§3) The resolved proteins were transferred from the gels to a polyvinyldifluoride membrane for Western Blotting using a Trans-Blot® Turbo (BioRad). FLAG-tagged enzymes were stained using rabbit anti-FLAG as primary antibody, and goat-anti-rabbit HRP as secondary antibody. The blot was developed in the dark using a 10 mL luminal solution, 100 μL ECL enhancer and 3 μL H2O2. Chemiluminescence was visualized using a ChemiDoc XRS (BioRad).
(§4) The percentage of DAGL activity remaining in the assayed samples was determined by measuring the integrated optical intensity of the fluorescent protein bands of the Western Blot using image lab 4.1. The relative intensity was compared to the vehicle (DMSO) treated proteins, which were set to 100%. IC50 values were determined by plotting a log(inhibitor) vs. normalized response (Variable slope) dose-response curve generated using Prism software (GraphPad).

[2] = target: DAGLβ (hDAGLβ-FLAG) (Homo sapiens (Human), UniProt Q8NCG7); assay: as above; type: biochemical; conditions: for inhibition at 0.0032 µM: read-out: DAGLβ % inh. 3.2 nM; for inhibition at 0.8 µM: read-out: DAGLβ % inh. 0.8 μM
DAGLβ (hDAGLβ-FLAG), sequence (Q8NCG7 whole entry): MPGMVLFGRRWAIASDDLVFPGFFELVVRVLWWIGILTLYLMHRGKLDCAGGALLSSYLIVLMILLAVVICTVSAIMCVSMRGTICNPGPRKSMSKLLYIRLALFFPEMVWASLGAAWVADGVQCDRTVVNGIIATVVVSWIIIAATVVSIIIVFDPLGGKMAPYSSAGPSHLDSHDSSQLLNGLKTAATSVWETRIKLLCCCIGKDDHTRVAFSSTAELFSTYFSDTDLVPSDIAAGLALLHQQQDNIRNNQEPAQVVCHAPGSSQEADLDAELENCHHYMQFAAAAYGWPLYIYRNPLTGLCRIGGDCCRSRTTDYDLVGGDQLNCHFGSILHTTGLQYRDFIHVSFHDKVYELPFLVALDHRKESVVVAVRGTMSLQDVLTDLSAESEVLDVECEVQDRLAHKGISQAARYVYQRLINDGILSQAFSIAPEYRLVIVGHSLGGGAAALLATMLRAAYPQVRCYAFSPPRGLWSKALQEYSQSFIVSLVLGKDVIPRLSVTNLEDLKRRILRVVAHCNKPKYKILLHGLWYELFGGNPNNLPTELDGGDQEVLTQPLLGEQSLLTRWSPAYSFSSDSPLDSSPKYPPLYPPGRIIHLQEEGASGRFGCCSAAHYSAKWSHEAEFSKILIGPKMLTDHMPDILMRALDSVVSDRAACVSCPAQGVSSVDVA
Protocol: as §1, §2, §3, §4

DAGLα (hDAGLα-FLAG), sequence (Q9Y4D2 whole entry): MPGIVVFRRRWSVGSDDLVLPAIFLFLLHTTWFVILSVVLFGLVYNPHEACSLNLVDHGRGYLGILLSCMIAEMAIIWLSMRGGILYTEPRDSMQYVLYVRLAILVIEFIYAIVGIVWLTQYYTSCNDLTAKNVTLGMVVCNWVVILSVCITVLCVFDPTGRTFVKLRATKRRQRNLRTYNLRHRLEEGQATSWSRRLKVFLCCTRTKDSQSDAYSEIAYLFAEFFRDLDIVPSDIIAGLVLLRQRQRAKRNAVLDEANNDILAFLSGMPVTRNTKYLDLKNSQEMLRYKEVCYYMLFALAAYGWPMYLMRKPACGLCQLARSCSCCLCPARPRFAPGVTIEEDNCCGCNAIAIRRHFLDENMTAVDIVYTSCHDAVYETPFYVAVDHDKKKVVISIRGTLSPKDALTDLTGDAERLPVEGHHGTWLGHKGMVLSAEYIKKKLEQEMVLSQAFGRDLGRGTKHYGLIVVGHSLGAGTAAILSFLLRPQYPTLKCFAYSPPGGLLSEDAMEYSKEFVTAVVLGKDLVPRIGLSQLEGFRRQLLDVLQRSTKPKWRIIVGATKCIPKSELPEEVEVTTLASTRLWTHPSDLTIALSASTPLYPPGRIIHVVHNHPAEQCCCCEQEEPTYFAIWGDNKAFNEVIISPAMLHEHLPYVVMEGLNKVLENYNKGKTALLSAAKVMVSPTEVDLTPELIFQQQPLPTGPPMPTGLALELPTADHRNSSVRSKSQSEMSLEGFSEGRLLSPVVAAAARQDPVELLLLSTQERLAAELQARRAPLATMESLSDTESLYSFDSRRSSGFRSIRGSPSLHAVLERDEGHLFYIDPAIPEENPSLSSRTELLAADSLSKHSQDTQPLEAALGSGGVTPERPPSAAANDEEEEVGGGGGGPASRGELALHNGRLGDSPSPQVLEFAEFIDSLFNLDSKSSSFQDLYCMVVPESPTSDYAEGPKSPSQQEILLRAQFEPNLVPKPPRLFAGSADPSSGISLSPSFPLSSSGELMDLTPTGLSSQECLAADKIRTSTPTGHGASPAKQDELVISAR

Row | SMILES | IC50 ([1]; read-out: DAGLα IC50) | IC50 ([2]; read-out: DAGLβ IC50) | further results
1 | COc1cncc(OC)c1-c1ccc(-c2cn(C(=O)N3CCCCC3Cc3ccccc3)nn2)cc1 (stereo not drawn) [Compound 19, (2-Benzylpiperidin-1-yl)(4-(4-(3,5-dimethoxypyridin-4-yl)phenyl)-1H-1,2,3-triazol-1-yl)methanone] | ≤ 400 nM | ≤ 400 nM | IC50 ([1]; ABPP method, n=3, read-out: IC50, DAGLα): 9.5 nM; IC50 ([2]; ABPP method, n=3, read-out: IC50, DAGLβ): 106 nM
2 | CC(C)C(=O)N1CCN(C(=O)n2cc(-c3ccc(OC(F)(F)F)cc3)nn2)C(Cc2ccccc2)C1 (stereo not drawn) [Compound 30, 1-(3-benzyl-4-(4-(4-(trifluoromethoxy)phenyl)-1H-1,2,3-triazole-1-carbonyl)piperazin-1-yl)-2-methylpropan-1-one] |  |  | DAGLα % inh. 0.8 μM ([1]; 0.8 μM (stated under the cell)): *** (% inhibition greater than or equal to 50% and less than 75%); DAGLβ % inh. 0.8 μM ([2]; 0.8 μM (stated under the cell)): * (% inhibition greater than or equal to 0% and less than 25%)
3 | CCC(CC)CN(CCc1cccnc1)C(=O)n1cc(-c2ccc(OC(F)(F)F)cc2)nn1 [Compound 136, N-(2-ethylbutyl)-N-(2-(pyridin-3-yl)ethyl)-4-(4-(trifluoromethoxy)phenyl)-1H-1,2,3-triazole-1-carboxamide] | ≤ 400 nM | ≤ 400 nM | 
4 | CC(C)(C)CN(CCc1ccncc1)C(=O)n1ncc(-c2ccc(OC(F)(F)F)cc2)n1 [Compound 133, N-neopentyl-N-(2-(pyridin-4-yl)ethyl)-4-(4-(trifluoromethoxy)phenyl)-2H-1,2,3-triazole-1-carboxamide] | 2000 to 10000 nM | 400 to 2000 nM | 
5 | CCC(CC)CN(CCc1ccncc1)C(=O)n1cc(-c2ccc(OC(F)(F)F)cc2)nn1 [Compound 53, N-(2-Ethylbutyl)-N-(2-(pyridin-4-yl)ethyl)-4-(4-(trifluoromethoxy)phenyl)-1H-1,2,3-triazole-1-carboxamide] | 400 to 2000 nM | ≤ 400 nM | 
6 | COc1cc(Cl)cc(OC)c1-c1ccc(-c2cn(C(=O)N3CCCCC3Cc3ccncc3)nn2)cc1 (stereo not drawn) [Compound 69, (4-(4′-chloro-2′,6′-dimethoxy-[1,1′-biphenyl]-4-yl)-1H-1,2,3-triazol-1-yl)(2-(pyridin-4-ylmethyl)piperidin-1-yl)methanone] | ≤ 400 nM | 2000 to 10000 nM | 
7 | O=C(N1C[C@H](O)C=C[C@@H]1Cc1ccccc1)n1ncc(-c2ccc(OC(F)(F)F)cc2)n1 [Compound 113, ((3R,6S)-6-benzyl-3-hydroxy-3,6-dihydropyridin-1(2H)-yl)(4-(4-(trifluoromethoxy)phenyl)-2H-1,2,3-triazol-2-yl)methanone] |  |  | inhibition at 0.0032 µM [1]: 0 to 25%; inhibition at 0.0032 µM [2]: 0 to 25%
8 | O=C(N1C[C@H](O)C=C[C@@H]1COCc1ccccc1)n1cc(-c2ccc(OC(F)(F)F)cc2)nn1 [Compound 50, ((3R,6R)-6-((Benzyloxy)methyl)-3-hydroxy-3,6-dihydropyridin-1(2H)-yl)(4-(4-(trifluoromethoxy)phenyl)-1H-1,2,3-triazol-1-yl)methanone] |  |  | inhibition at 0.0032 µM [1]: 0 to 25%; inhibition at 0.0032 µM [2]: 0 to 25%
9 | CC(C)C(=O)N1CCN(C(=O)n2cc(-c3ccc(OC(F)(F)F)cc3)nn2)C(Cc2ccccc2)C1 (stereo not drawn) [Compound 26, 1-(3-benzyl-4-(4-(4-(trifluoromethoxy)phenyl)-1H-1,2,3-triazole-1-carbonyl)piperazin-1-yl)-2-methylpropan-1-one] |  |  | DAGLα % inh. 0.8 μM ([1]; 0.8 μM (stated under the cell)): * (% inhibition greater than or equal to 0% and less than 25%); inhibition at 0.8 µM ([2]; 0.8 μM (stated under the cell)): 0 to 25%
10 | CCC(CC)CN(CCc1cccnc1)C(=O)n1ncc(-c2ccc(OC(F)(F)F)cc2)n1 [Compound 137] | 400 to 2000 nM | 400 to 2000 nM | 
11 | COc1cc(OC)c(-c2ccc(-c3cn(C(=O)N4CCCCC4Cc4ccncc4)nn3)cc2)c(OC)c1 (stereo not drawn) [Compound 67, (2-(pyridin-4-ylmethyl)piperidin-1-yl)(4-(2′,4′,6′-trimethoxy-[1,1′-biphenyl]-4-yl)-1H-1,2,3-triazol-1-yl)methanone] | ≤ 400 nM | 2000 to 10000 nM | 
12 | COc1cccc(OC)c1-c1ccc(-c2cn(C(=O)N3CCCCC3Cc3ccccc3)nn2)cc1 (stereo not drawn) [Compound 63, (2-benzylpiperidin-1-yl)(4-(2′,6′-dimethoxy-[1,1′-biphenyl]-4-yl)-1H-1,2,3-triazol-1-yl)methanone] | ≤ 400 nM | 2000 to 10000 nM | 
13 | CO[C@H]1CC[C@H](Cc2ccccc2)N(C(=O)n2ncc(-c3ccc(OC(F)(F)F)cc3)n2)C1 [Compound 119] |  |  | inhibition at 0.0032 µM [1]: 0 to 25%; inhibition at 0.0032 µM [2]: 0 to 25%
14 | COC(=O)N1CCN(C(=O)n2cc(-c3ccc(OC(F)(F)F)cc3)nn2)C(Cc2ccccc2)C1 (stereo not drawn) [Compound 95, methyl 3-benzyl-4-(4-(4-(trifluoromethoxy)phenyl)-1H-1,2,3-triazole-1-carbonyl)piperazine-1-carboxylate] |  |  | inhibition at 0.4 µM ([1]; 0.4 μM, read-out: DAGLα % inh. 0.4 μM): ≥ 75%; inhibition at 0.4 µM ([2]; read-out: DAGLβ % inh. 0.4 μM): 25 to 50%
15 | CO[C@H]1CC[C@H](Cc2ccccc2)N(C(=O)n2cc(-c3ccc(OC(F)(F)F)cc3)nn2)C1 [Compound 118, ((2R,5S)-2-benzyl-5-methoxypiperidin-1-yl)(4-(4-(trifluoromethoxy)phenyl)-1H-1,2,3-triazol-1-yl)methanone] |  |  | inhibition at 0.0032 µM [1]: 25 to 50%; inhibition at 0.0032 µM [2]: 0 to 25%
16 | C#CCCCC(=O)N1CCN(C(=O)n2cc(-c3ccc(OC(F)(F)F)cc3)nn2)C(Cc2ccccc2)C1 (stereo not drawn) [Compound 34, 1-(3-benzyl-4-(4-(4-(trifluoromethoxy)phenyl)-1H-1,2,3-triazole-1-carbonyl)piperazin-1-yl)hex-5-yn-1-one] |  |  | inhibition at 0.8 µM ([1]; 0.8 μM (stated under the cell), read-out: DAGLα % inh. 0.8 μM): 25 to 50%; inhibition at 0.8 µM ([2]; 0.8 μM (stated under the cell)): 0 to 25%
17 | CCC(CC)CN(CCc1ccncc1)C(=O)n1ncc(-c2ccc(OC(F)(F)F)cc2)n1 [Compound 54, N-(2-Ethylbutyl)-N-(2-(pyridin-4-yl)ethyl)-4-(4-(trifluoromethoxy)phenyl)-2H-1,2,3-triazole-2-carboxamide] | > 10000 nM | 2000 to 10000 nM | 
18 | O=C(N1CCCC[C@H]1Cc1ccccc1)n1ncc(-c2ccc(OC(F)(F)F)cc2)n1 [Compound 105, (S)-(2-benzylpiperidin-1-yl)(4-(4-(trifluoromethoxy)phenyl)-2H-1,2,3-triazol-2-yl)methanone] |  |  | inhibition at 0.0032 µM [1]: 0 to 25%; inhibition at 0.0032 µM [2]: 0 to 25%
19 | CO[C@@H]1CC[C@H](Cc2ccccc2)N(C(=O)n2cc(-c3ccc(OC(F)(F)F)cc3)nn2)C1 [Compound 116, ((2R,5R)-2-benzyl-5-methoxypiperidin-1-yl)(4-(4-(trifluoromethoxy)phenyl)-1H-1,2,3-triazol-1-yl)methanone] |  |  | inhibition at 0.0032 µM [1]: 25 to 50%; inhibition at 0.0032 µM [2]: 0 to 25%

Now from value to compound, other results behind:

Row | IC50 ([1]; read-out: DAGLα IC50) | IC50 ([2]; read-out: DAGLβ IC50) | SMILES | further results
20 | ≤ 400 nM | ≤ 400 nM | CC(C)(C)CN(CCc1ccccc1)C(=O)n1cc(-c2ccc(OC(F)(F)F)cc2)nn1 [Compound 123, N-neopentyl-N-phenethyl-4-(4-(trifluoromethoxy)phenyl)-1H-1,2,3-triazole-1-carboxamide] | 
21 | ≤ 400 nM | ≤ 400 nM | O=C(N(CCc1ccccc1)C1CC1)n1cc(-c2ccc(OC(F)(F)F)cc2)nn1 [Compound 125, N-cyclopropyl-N-phenethyl-4-(4-(trifluoromethoxy)phenyl)-1H-1,2,3-triazole-1-carboxamide] | 
22 | ≤ 400 nM | ≤ 400 nM | O=C(N1CCCCC1Cc1ccccc1)n1cc(-c2ccc([N+](=O)[O-])cc2)nn1 (stereo not drawn) [Compound 89, (2-benzylpiperidin-1-yl)(4-(4-nitrophenyl)-1H-1,2,3-triazol-1-yl)methanone] | 
23 | ≤ 400 nM | ≤ 400 nM | O=C(N1CCCCC1Cc1ccncc1)n1cc(-c2ccc(-c3ccccc3)cc2)nn1 (stereo not drawn) [Compound 66, (4-([1,1′-biphenyl]-4-yl)-1H-1,2,3-triazol-1-yl)(2-(pyridin-4-ylmethyl)piperidin-1-yl)methanone] | 
